Values of other authors, collected in patent US20090247603A1, “Stabilized pharmaceutical compositions comprising an HMG-CoA reductase inhibitor” (Orbus Pharma, Inc., priority 2005, published 2009).

Settings: following oral administration

dose recovered in urine: Less than 2%
Structure (SMILES): CC(C)c1c(C(=O)Nc2ccccc2)c(-c2ccccc2)c(-c2ccc(F)cc2)n1CC[C@@H](O)C[C@@H](O)CC(=O)[O-].CC(C)c1c(C(=O)Nc2ccccc2)c(-c2ccccc2)c(-c2ccc(F)cc2)n1CC[C@@H](O)C[C@@H](O)CC(=O)[O-].[Ca+2] (relative stereo) [atorvastatin calcium, (R—(R*,R*))-2-(4-fluorophenyl)-[beta],[delta]-dihydroxy-5-(1-methylethyl)-3-phenyl-4((phenylamino)carbonyl)-1H-pyrole-1-heptanoic acid hemi calcium salt]
